Measurements from US20260325533A1, “CDK INHIBITOR COMPOUNDS” (ALEKSIA THERAPEUTICS, INC., priority 2023, published 2026).
Where two headings read alike, the source gives them in different places.

How the values were obtained:
Type in all cases: biochemical
[1] = target: CDK6/CCND1 (Homo sapiens, UniProt Q00534); assay: CDK6 homogeneous time-resolved fluorescence (HTRF) kinase assay; conditions: CDK6/CCND
Method in brief: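 1 nM enzyme, 1 mM ATP, 50 nM ULight-4E-BP1 (Thr37/46) peptide, 1% DMSO; 20 min compound preincubation, 60 min reaction, 23 °C. EDTA stop, 2 nM Eu-anti-phospho-4E-BP1 antibody 60 min. TR-FRET 665 nm (or 665/615 ratio); IC50 from 11-point half-log titration, top 10 μM.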

[2] = target: CDK1/CCNB1 (Homo sapiens, UniProt P06493); assay: CDK1 homogeneous time-resolved fluorescence (HTRF) kinase assay; conditions: CDK1/CCNB
Method in brief: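 Read-out: TR-FRET (Eu anti-phospho-4E-BP1 Thr37/46 antibody, 2 nM; 665 nm or 665/615 ratio) after 60 min phosphorylation of 50 nM ULight-peptide by 0.5 nM CDK1/CCNB1 at 1 mM ATP, 23 °C. Compound preincubated 20 min with enzyme; 1% DMSO.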

[3] = target: CDK2/CCNE1 (Homo sapiens, UniProt P24941); assay: CDK2 homogeneous time-resolved fluorescence (HTRF) kinase assay; conditions: CDK2/CCNE
Method in brief: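 CDK2/CCNE1 (3 nM) preincubated 20 min at 23 °C with compound, then reacted 60 min at 23 °C with 1 mM ATP and 50 nM ULight-4E-BP1 (Thr37/46) peptide. Stopped with EDTA, phospho-peptide detected by Eu-anti-phospho antibody (665 nm or 665/615 ratio). IC50 from 11-point half-log titrations typically starting at 10 μM.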

[4] = target: CDK4/CCND3 (Homo sapiens, UniProt P11802); assay: CDK4 homogeneous time-resolved fluorescence (HTRF) kinase assay; conditions: CDK4/CCND
Method in brief: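 Compounds were preincubated with 1.5 nM CDK4/CCND3 for 20 min at 23 °C in HEPES buffer (pH not given), then reacted 60 min with 1 mM ATP and 50 nM ULight-4E-BP1 (Thr37/46) peptide. EDTA stop, Eu-anti-phospho-4E-BP1 detection; 665/615 nm ratio; IC50 from 11-point half-log titrations from 10 μM.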

[5] = x = IC50 25-250 nM, read-out: CDK6/CCND IC50 (25-250 nM)
[6] = x = IC50 25-250 nM, read-out: CDK1/CCNB IC50 (25-250 nM)
[7] = x = IC50 <25 nM, read-out: CDK2/CCNE IC50 (<25 nM)
[8] = x = IC50 <25 nM, read-out: CDK4/CCND IC50 (<25 nM)
[9] = x = IC50 25-250 nM, read-out: CDK4/CCND IC50 (25-250 nM)
[10] = x = IC50 >250 nM, read-out: CDK6/CCND IC50 (>250 nM column)
[11] = x = IC50 >250 nM, read-out: CDK1/CCNB IC50 (>250 nM column)
[12] = x = IC50 25-250 nM, read-out: CDK2/CCNE IC50 (25-250 nM)
[13] = x = IC50 >250 nM, read-out: CDK4/CCND IC50 (>250 nM column)

Sequence of CDK4/CCND3 (P11802 whole entry): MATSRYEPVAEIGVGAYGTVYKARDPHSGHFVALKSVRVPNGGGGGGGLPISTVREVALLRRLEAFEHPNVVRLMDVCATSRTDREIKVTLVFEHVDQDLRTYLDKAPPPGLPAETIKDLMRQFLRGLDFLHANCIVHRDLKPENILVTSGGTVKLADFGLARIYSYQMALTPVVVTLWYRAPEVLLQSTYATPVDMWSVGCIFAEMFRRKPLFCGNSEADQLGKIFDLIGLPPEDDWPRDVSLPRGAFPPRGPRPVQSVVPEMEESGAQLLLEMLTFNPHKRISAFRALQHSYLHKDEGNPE
Sequence of CDK4/CCND3 (P30281 whole entry partner): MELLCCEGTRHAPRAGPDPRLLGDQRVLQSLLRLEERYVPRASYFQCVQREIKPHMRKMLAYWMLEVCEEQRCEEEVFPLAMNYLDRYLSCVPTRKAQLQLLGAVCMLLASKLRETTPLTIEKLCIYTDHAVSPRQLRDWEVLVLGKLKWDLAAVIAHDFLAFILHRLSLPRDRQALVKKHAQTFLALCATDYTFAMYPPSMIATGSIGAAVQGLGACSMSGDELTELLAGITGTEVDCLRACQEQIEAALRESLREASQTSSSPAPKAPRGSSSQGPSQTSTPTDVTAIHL
Sequence of CDK6/CCND1 (Q00534 whole entry): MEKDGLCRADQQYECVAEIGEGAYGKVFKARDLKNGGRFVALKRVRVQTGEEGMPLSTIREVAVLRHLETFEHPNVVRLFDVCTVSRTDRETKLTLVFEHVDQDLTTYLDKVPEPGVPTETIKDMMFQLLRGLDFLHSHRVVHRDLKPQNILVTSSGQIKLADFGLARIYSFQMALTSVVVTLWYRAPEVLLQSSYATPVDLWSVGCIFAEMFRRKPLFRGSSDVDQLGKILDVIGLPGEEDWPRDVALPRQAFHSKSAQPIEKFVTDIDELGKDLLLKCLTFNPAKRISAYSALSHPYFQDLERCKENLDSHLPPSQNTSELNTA
Sequence of CDK6/CCND1 (P24385 whole entry partner): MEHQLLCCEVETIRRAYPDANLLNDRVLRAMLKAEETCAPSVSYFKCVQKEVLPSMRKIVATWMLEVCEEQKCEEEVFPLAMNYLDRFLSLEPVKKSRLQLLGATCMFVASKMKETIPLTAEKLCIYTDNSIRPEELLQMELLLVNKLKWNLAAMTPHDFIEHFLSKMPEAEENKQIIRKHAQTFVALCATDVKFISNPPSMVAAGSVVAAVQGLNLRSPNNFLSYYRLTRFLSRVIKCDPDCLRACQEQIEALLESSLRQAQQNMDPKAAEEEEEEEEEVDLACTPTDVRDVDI
Sequence of CDK1/CCNB1 (P06493 whole entry): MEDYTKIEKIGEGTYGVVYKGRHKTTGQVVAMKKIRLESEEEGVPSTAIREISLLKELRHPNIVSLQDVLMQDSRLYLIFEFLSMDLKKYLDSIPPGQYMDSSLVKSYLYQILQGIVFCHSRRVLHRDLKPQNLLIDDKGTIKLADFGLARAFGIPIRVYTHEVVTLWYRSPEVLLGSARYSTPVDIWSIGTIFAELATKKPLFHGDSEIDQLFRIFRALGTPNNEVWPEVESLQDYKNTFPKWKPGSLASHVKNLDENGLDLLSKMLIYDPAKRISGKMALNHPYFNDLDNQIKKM
Sequence of CDK1/CCNB1 (P14635 whole entry partner): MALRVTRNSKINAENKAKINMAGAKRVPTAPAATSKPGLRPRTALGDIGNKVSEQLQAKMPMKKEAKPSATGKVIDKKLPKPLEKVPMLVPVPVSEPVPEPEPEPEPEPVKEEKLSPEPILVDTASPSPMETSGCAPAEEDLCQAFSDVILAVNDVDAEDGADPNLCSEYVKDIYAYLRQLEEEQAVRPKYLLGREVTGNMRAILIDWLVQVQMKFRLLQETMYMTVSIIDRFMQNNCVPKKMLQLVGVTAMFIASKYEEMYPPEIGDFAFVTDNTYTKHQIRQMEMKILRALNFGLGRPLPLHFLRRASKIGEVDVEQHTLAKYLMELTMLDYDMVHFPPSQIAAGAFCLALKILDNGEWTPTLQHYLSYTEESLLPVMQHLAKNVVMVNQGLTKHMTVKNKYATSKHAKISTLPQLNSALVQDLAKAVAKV

SMILES | IC50 [1, 5] | IC50 [2, 6] | IC50 [3, 7] | IC50 [4, 8] | IC50 [4, 9] | IC50 [1, 10] | IC50 [2, 11] | IC50 [3, 12] | IC50 [4, 13]
N=S(=O)(c1ccc(Nc2cc3c(C#Cc4ccc5c(c4)NC(=O)C54CC4)nccc3cn2)cc1)C1CCC1 (single isomer, unassigned) [Ex 350, 6'-((7-((4-(cyclobutanesulfonimidoyl)phenyl)amino)-2,6-naphthyridin-1-yl)ethynyl)spiro[cyclopropane-1,3'-indolin]-2'-one] | 25 to 250 nM | 25 to 250 nM | < 25 nM | < 25 nM | – | – | – | – | –
CC(C)S(=N)(=O)c1ccc(Nc2cc3c(C#Cc4ccc5c(c4)NC(=O)C54CC4)nccc3cn2)cc1 (single isomer, unassigned) [Ex 354, 6'-((7-((4-(propan-2-ylsulfonimidoyl)phenyl)amino)-2,6-naphthyridin-1-yl)ethynyl)spiro[cyclopropane-1,3'-indolin]-2'-one] | 25 to 250 nM | 25 to 250 nM | < 25 nM | – | 25 to 250 nM | – | – | – | –
CS(=N)(=O)c1ccc(Nc2cc3c(C#Cc4ccc5c(c4)NC(=O)C54CC4)nccc3cn2)cc1 (single isomer, unassigned) [Ex 358, 6'-((7-((4-(S-methylsulfonimidoyl)phenyl)amino)-2,6-naphthyridin-1-yl)ethynyl)spiro[cyclopropane-1,3'-indolin]-2'-one] | – | 25 to 250 nM | < 25 nM | – | 25 to 250 nM | > 250 nM | – | – | –
N=S(=O)(c1ccc(Nc2cc3c(C#Cc4ccc5c(c4)NC(=O)C54CCC4)nccc3cn2)cc1)C1CCC1 (single isomer, unassigned) [Ex 363, 6'-((7-((4-(cyclobutanesulfonimidoyl)phenyl)amino)-2,6-naphthyridin-1-yl)ethynyl)spiro[cyclobutane-1,3'-indolin]-2'-one] | 25 to 250 nM | 25 to 250 nM | < 25 nM | – | 25 to 250 nM | – | – | – | –
CCS(=N)(=O)c1ccc(Nc2cc3c(C#Cc4ccc5c(c4)NC(=O)C54CCC4)nccc3cn2)cc1 (single isomer, unassigned) [Ex 366, 6'-((7-((4-(ethylsulfonimidoyl)phenyl)amino)-2,6-naphthyridin-1-yl)ethynyl)spiro[cyclobutane-1,3'-indolin]-2'-one] | 25 to 250 nM | 25 to 250 nM | < 25 nM | – | 25 to 250 nM | – | – | – | –
CS(=N)(=O)c1ccc(Nc2cc3c(C#Cc4ccc5c(c4)NC(=O)C54CCC4)nccc3cn2)cc1 (single isomer, unassigned) [Ex 368, 6'-((7-((4-(S-methylsulfonimidoyl)phenyl)amino)-2,6-naphthyridin-1-yl)ethynyl)spiro[cyclobutane-1,3'-indolin]-2'-one] | – | 25 to 250 nM | < 25 nM | – | 25 to 250 nM | > 250 nM | – | – | –
CC(C)S(=N)(=O)c1ccc(Nc2cc3c(C#Cc4ccc5c(c4)NC(=O)C54CCC4)nccc3cn2)cc1 (single isomer, unassigned) [Ex 383, 6'-((7-((4-(propan-2-ylsulfonimidoyl)phenyl)amino)-2,6-naphthyridin-1-yl)ethynyl)spiro[cyclobutane-1,3'-indolin]-2'-one] | 25 to 250 nM | 25 to 250 nM | < 25 nM | – | 25 to 250 nM | – | – | – | –
CC(C)S(=N)(=O)c1ccc(Nc2cc3c(C#Cc4cccnc4N)nccc3cn2)cc1 (single isomer, unassigned) [Ex 402, (4-((5-((2-aminopyridin-3-yl)ethynyl)-2,6-naphthyridin-3-yl)amino)phenyl)(imino)(isopropyl)-l6-sulfanone] | – | – | – | – | – | > 250 nM | > 250 nM | 25 to 250 nM | > 250 nM
CCC1(CC)C(=O)Nc2cc(C#Cc3nccc4cnc(Nc5ccc(S(=N)(=O)C6CC6)cc5)cc34)ccc21 (single isomer, unassigned) [Ex 410, 6-((7-((4-(cyclopropanesulfonimidoyl)phenyl)amino)-2,6-naphthyridin-1-yl)ethynyl)-3,3-diethylindolin-2-one] | – | 25 to 250 nM | < 25 nM | – | 25 to 250 nM | > 250 nM | – | – | –
CCC1(CC)C(=O)Nc2cc(C#Cc3nccc4cnc(Nc5ccc(S(=N)(=O)CC)cc5)cc34)ccc21 (single isomer, unassigned) [Ex 411, 3,3-diethyl-6-((7-((4-(ethylsulfonimidoyl)phenyl)amino)-2,6-naphthyridin-1-yl)ethynyl)indolin-2-one] | – | 25 to 250 nM | < 25 nM | – | – | > 250 nM | – | – | > 250 nM
CCC1(CC)C(=O)Nc2cc(C#Cc3nccc4cnc(Nc5ccc(S(=N)(=O)C6CCC6)cc5)cc34)ccc21 (single isomer, unassigned) [Ex 412, 6-((7-((4-(cyclobutanesulfonimidoyl)phenyl)amino)-2,6-naphthyridin-1-yl)ethynyl)-3,3-diethylindolin-2-one] | – | – | < 25 nM | – | 25 to 250 nM | > 250 nM | > 250 nM | – | –
CCC1(CC)C(=O)Nc2cc(C#Cc3nccc4cnc(Nc5ccc(S(=N)(=O)C(C)C)cc5)cc34)ccc21 (single isomer, unassigned) [Ex 414, 3,3-diethyl-6-((7-((4-(propan-2-ylsulfonimidoyl)phenyl)amino)-2,6-naphthyridin-1-yl)ethynyl)indolin-2-one] | – | – | < 25 nM | – | – | > 250 nM | > 250 nM | – | > 250 nM
N=S(=O)(c1ccc(Nc2cc3c(C#Cc4cccnc4N)nccc3cn2)cc1)C1CC1 (single isomer, unassigned) [Ex 417, (4-((5-((2-aminopyridin-3-yl)ethynyl)-2,6-naphthyridin-3-yl)amino)phenyl)(cyclopropyl)(imino)-l6-sulfanone] | – | – | – | – | – | > 250 nM | > 250 nM | 25 to 250 nM | > 250 nM
CCC1(CC)C(=O)Nc2cc(C#Cc3nccc4cnc(Nc5ccc(S(C)(=N)=O)cc5)cc34)ccc21 (single isomer, unassigned) [Ex 426, 3,3-diethyl-6-((7-((4-(S-methylsulfonimidoyl)phenyl)amino)-2,6-naphthyridin-1-yl)ethynyl)indolin-2-one] | – | 25 to 250 nM | < 25 nM | – | – | > 250 nM | – | – | > 250 nM
CC1(C)C(=O)Nc2cc(C#Cc3nccc4cnc(Nc5ccc(S(=N)(=O)C6CC6)cc5)cc34)ccc21 (single isomer, unassigned) [Ex 437, 6-((7-((4-(cyclopropanesulfonimidoyl)phenyl)amino)-2,6-naphthyridin-1-yl)ethynyl)-3,3-dimethylindolin-2-one] | 25 to 250 nM | 25 to 250 nM | < 25 nM | < 25 nM | – | – | – | – | –
CC1(C)C(=O)Nc2cc(C#Cc3nccc4cnc(Nc5ccc(S(C)(=N)=O)cc5)cc34)ccc21 (single isomer, unassigned) [Ex 451, 3,3-dimethyl-6-((7-((4-(S-methylsulfonimidoyl)phenyl)amino)-2,6-naphthyridin-1-yl)ethynyl)indolin-2-one] | – | 25 to 250 nM | < 25 nM | – | 25 to 250 nM | > 250 nM | – | – | –
CC(C)S(=N)(=O)c1ccc(Nc2cc3c(C#Cc4ccc5c(c4)NC(=O)C5(C)C)nccc3cn2)cc1 (single isomer, unassigned) [Ex 455, 3,3-dimethyl-6-((7-((4-(propan-2-ylsulfonimidoyl)phenyl)amino)-2,6-naphthyridin-1-yl)ethynyl)indolin-2-one] | 25 to 250 nM | 25 to 250 nM | < 25 nM | < 25 nM | 25 to 250 nM | – | – | – | –
CCS(=N)(=O)c1ccc(Nc2cc3c(C#Cc4ccc5c(c4)NC(=O)C5(C)C)nccc3cn2)cc1 (single isomer, unassigned) [Ex 462, 6-((7-((4-(ethylsulfonimidoyl)phenyl)amino)-2,6-naphthyridin-1-yl)ethynyl)-3,3-dimethylindolin-2-one] | 25 to 250 nM | 25 to 250 nM | < 25 nM | – | 25 to 250 nM | – | – | – | –
CCS(=N)(=O)c1ccc(Nc2cc3c(C#Cc4cccnc4N)nccc3cn2)cc1 (single isomer, unassigned) [Ex 474, (4-((5-((2-aminopyridin-3-yl)ethynyl)-2,6-naphthyridin-3-yl)amino)phenyl)(ethyl)(imino)-l6-sulfanone] | – | – | – | – | – | > 250 nM | > 250 nM | 25 to 250 nM | > 250 nM
